Test results published in patent publication US20030225081A1, “Pyridazinones and triazinones and medicinal use thereof” (priority 2000, published 2003).

Tested on: AMPA receptor
Assay: Suppressing action to calcium influx into nerve cells induced by AMPA
Type: cell-based
Details: Fura2-AM, stimulation with 2 μM AMPA, primary culture of rat embryo cerebral cortex nerve cells, 1 μM MK-801
From the text: Suppressing Action to Calcium Influx into Nerve Cells Induced by AMPA
The suppressing action of the compounds of the present invention to calcium influx into nerve cells induced by AMPA was investigated using the primary culture system of nerve cells of cerebral cortex of embryo of rat.
Cerebral cortex was cut out from the brain of rat of gestational 18 days and treated with trypsin and DNase to disperse the cells. The cells were flown by MEM containing 10% of serum, sown in a culture bottle and astrocytes were proliferated. The astrocytes were re-dispersed by trypsin and sown in a 96-well plate. After incubation for one week, it was confirmed that the astrocytes covered all over the bottom and then the nerve cells of cerebral cortex which was dispersed by the above method were sown thereupon. After incubation for 24 hours, the medium was changed, the incubation was carried out for one week and, after that, the medium was changed to that containing 1 μM of MK-801. Nerve cells which were incubated for not shorter than 8 to 10 days were used.
Calcium influx into the cells was measured using Fura2-AM which was a calcium-sensitive fluorescent dye. It was treated in a medium containing Fura2-AM for 1 hour, incorporated into the cells, exchanged to a Tyrode solution containing 1 μM MK-801 and stimulation was carried out using 2 μM AMPA. Change in the amount of calcium flown into the cells were measured as the change in the fluorescent intensity at the exciting wave length of 340/380 nm. […] As the control compound, GYKI52466 (Le Peillet, et al., Brain Res., 571, 115, 1992) was used.

`N#Cc1ccccc1N1N=C2c3cc(F)ccc3OCC2C(c2ccccc2)C1=O` (stereo not shown) [Example 48, 2-(2-Cyanophenyl)-9-fluoro-4-phenyl-2,3,4,4a-tetrahydro-5H-(1)benzopyrano[4,3-c]pyridazin-3-one] gave an IC50 of 100 nM.

`N#Cc1ccccc1N1N=C2c3ccccc3OCC2C(c2cccnc2)C1=O` (stereo not shown) [Example 49, 2-(2-Cyanophenyl)-4-(3-pyridyl)-2,3,4,4a-tetrahydro-5H-(1) benzopyrano[4,3-c]pyridazin-3-one] showed an IC50 of 70 nM.

In the case of `O=C1C(c2cccnc2)C2COc3ccccc3C2=NN1c1ccccc1Br` (stereo not shown) [Example 50, 2-(2-Bromophenyl)-4-(3-pyridyl)-2,3,4,4a-tetrahydro-5H-(1)benzopyrano[4,3-c]pyridazin-3-one], the IC50 is reported as 100 nM.

`O=c1c(-c2ccccc2O)cc(-c2ccccn2)nn1-c1ccccc1Br` [Example 51, 2-(2-Bromophenyl)-4-(2-hydroxyphenyl)-6-(2-pyridyl)-3 (2H)-pyridazinone] was tested, and the IC50 was 800 nM.

Work on `COc1cccc(-c2cc(-c3ccccn3)nn(-c3ccccc3Br)c2=O)c1` [Example 52, 2-(2-Bromophenyl)-4-(3-methoxyphenyl)-6-(2-pyridyl)-3 (2H)-pyridazinone] yielded an IC50 of 200 nM.

For `N#Cc1ccccc1-n1nc2c(c(-c3ccccc3)c1=O)C(O)Oc1ccc(F)cc1-2` (stereo not shown) [Example 53, 2-(2-Cyanophenyl)-9-fluoro-5-hydroxy-4-phenyl-2,3-dihydro-5H-(1)benzopyrano[4,3-c]pyridazin-3-one], the IC50 was 500 nM.

With `N#Cc1ccccc1-n1nc2c(c(-c3ccccc3)c1=O)COc1ccc(F)cc1-2` [Example 54, 2-(2-Cyanophenyl)-9-fluoro-4-phenyl-2,3-dihydro-5H-(1)benzopyrano[4,3-c]pyridazin-3-one] the IC50 was 100 nM.

In the case of `O=c1c(-c2ccccc2OS(=O)(=O)C(F)(F)F)cc(-c2ccccn2)nn1-c1ccccc1` [Example 55, 2-Phenyl-6-(2-pyridyl)-4-(2-trifluoromethylsulfonyloxyphenyl)-3 (2H)-pyridazinone], the IC50 is reported as 800 nM.

`O=c1c(-c2ccccc2)cc(-c2ccccn2)nn1-c1ccccc1Br` [Example 56, 2-(2-Bromophenyl)-4-phenyl-6-(2-pyridyl)-3 (2H)-pyridazinone] was tested, and the IC50 was 200 nM.

For `O=c1c(-c2cccnc2)c2c(nn1-c1ccccc1Br)-c1ccccc1OC2` [Example 57, 2-(2-Bromophenyl)-4-(3-pyridyl)-2,3-dihydro-5H-(1)benzopyrano[4,3-c]pyridazine-3-one], the IC50 was 200 nM.

Work on `O=c1c(-c2cccnc2)c2c(nn1-c1ccccc1I)-c1ccccc1OC2` [Example 58, 2-(2-Iodophenyl)-4-(3-pyridyl)-2,3-dihydro-5H-(1)benzopyrano[4,3-c]pyridazin-3-one] yielded an IC50 of 400 nM.

For `O=c1c(-c2ccccc2Br)cc(-c2ccccn2)nn1-c1ccccc1` [Example 60, 4-(2-Bromophenyl)-2-phenyl-6-(2-pyridyl)-3 (2H)-pyridazinone], the IC50 was 200 nM.

For `O=c1c(-c2cccnc2)cc(-c2ccccn2)nn1-c1ccccc1Br` [Example 61, 2-(2-Bromophenyl)-4-(3-pyridyl)-6-(2-pyridyl)-3 (2H)-pyridazinone], the IC50 was 300 nM.

Work on `O=C(NCCN1CCOCC1)c1cc(-c2ccccc2)nn(-c2ccccc2Cl)c1=O` [Example 62, 2-(2-Chlorophenyl)-4-(4-morpholinoethylaminocarbonyl)-6-phenyl-3 (2H)-pyridazinone] yielded an IC50 of 4000 nM.

`O=c1c(-c2cccnc2)cc(-c2ccccn2)nn1-c1ccccc1[N+](=O)[O-]` [Example 63, 2-(2-Nitrophenyl)-4-(3-pyridyl)-6-(2-pyridyl)-3 (2H)-pyridazinone] showed an IC50 of 300 nM.

`Cc1cccc(-n2nc(-c3ccccn3)cc(-c3cccnc3)c2=O)c1` [Example 64, 2-(3-Tolyl)-4-(3-pyridyl)-6-(2-pyridyl)-3 (2H)-pyridazinone] was tested, and the IC50 was 700 nM.

Compound `N#Cc1ccccc1-n1nc(-c2ncccn2)cc(-c2ccccc2)c1=O` [Example 70, 2-(2-Cyanophenyl)-4-phenyl-6-(2-pyrimidinyl)-3 (2H)-pyridazinone] has an IC50 of 800 nM.

In the case of `O=c1c(-c2cccnc2)cc(-c2ccccn2)nn1-c1ccsc1` [Example 73, 2-(Thiophen-3-yl)-4-(3-pyridyl)-6-(2-pyridyl)-3 (2H)-pyridazinone], the IC50 is reported as 1100 nM.

Compound `O=c1c(-c2ccccc2)cc(-c2ccccn2)nn1-c1cccnc1` [Example 74, 2-(3-Pyridyl)-4-phenyl-6-(2-pyridyl)-3 (2H)-pyridazinone] has an IC50 of 900 nM.

`O=c1c(-c2ccccc2)cc(-c2ncccn2)nn1-c1cccnc1` [Example 75, 2-(3-Pyridyl)-4-phenyl-6-(2-pyrimidinyl)-3 (2H)-pyridazinone] gave an IC50 of 700 nM.

`COc1ccccc1N1N=C(c2ccccn2)CC(c2cccnc2)C1=O` (stereo not shown) [Example 76, 2-(2-Methoxyphenyl)-4-(3-pyridyl)-6-(2-pyridyl)-4,5-dihydro-3 (2H)-pyridazinone] was tested, and the IC50 was 6200 nM.

Work on `O=c1c(-c2ccccc2)cc(-c2ccccn2)nn1-c1ccc[n+]([O-])c1` [Example 79, 2-(3-Pyridin-1-oxide)-4-phenyl-6-(2-pyridyl)-3 (2H)-pyridazinone] yielded an IC50 of 7200 nM.

For `N#Cc1ccc(-n2nc(-c3ccccn3)cc(-c3ccccc3)c2=O)cn1` [Example 80A, 2-(2-Cyanopyridin-5-yl)-4-phenyl-6-(2-pyridyl)-3 (2H)-pyridazinone], the IC50 was 7100 nM.

Compound `N#Cc1ncccc1-n1nc(-c2ccccn2)cc(-c2ccccc2)c1=O` [Example 80B, 2-(2-Cyanopyridin-3-yl)-4-phenyl-6-(2-pyridyl)-3 (2H)-pyridazinone] has an IC50 of 200 nM.

Work on `N#Cc1ncccc1-n1nc(-c2ncccn2)cc(-c2ccccc2)c1=O` [Example 81B, 2-(2-Cyanopyridin-3-yl)-4-phenyl-6-(2-pyrimidinyl)-3 (2H)-pyridazinone] yielded an IC50 of 700 nM.

`N#Cc1ccccc1-n1nc(-c2cnccn2)cc(-c2ccccc2)c1=O` [Example 82, 2-(2-Cyanophenyl)-4-phenyl-6-(2-pyrazinyl)-3 (2H)-pyridazinone] was tested, and the IC50 was 1200 nM.

Compound `N#Cc1ccccc1-n1nc(-c2nccs2)cc(-c2ccccc2)c1=O` [Example 83, 2-(2-Cyanophenyl)-4-phenyl-6-(thiazol-2-yl)-3 (2H)-pyridazinone] has an IC50 of 600 nM.

`COc1ccccc1N1CC(c2ccccn2)=NN(c2ccccc2Br)C1=O` [Example 85, 2-(2-Bromophenyl)-4-(2-methoxyphenyl)-6-(2-pyridyl)-4,5-dihydro-1,2,4-triazin-3 (2H)-one] gave an IC50 of 200 nM.

`O=C1N(c2ccccc2O)CC(c2ccccn2)=NN1c1ccccc1Br` [Example 86, 2-(2-Bromophenyl)-4-(2-hydroxyphenyl)-6-(2-pyridyl)-4,5-dihydro-1,2,4-triazin-3 (2H)-one] gave an IC50 of 100 nM.

For `COc1ccccc1N1CC(c2ccccn2)=NN(c2ccccc2C#N)C1=O` [Example 87, 2-(2-Cyanophenyl)-4-(2-methoxyphenyl)-6-(2-pyridyl)-4,5-dihydro-1,2,4-triazin-3 (2H)-one], the IC50 was 50 nM.

Compound `COc1ccccc1C1=NN(c2ccccc2Br)C(=O)N(c2ccccc2)C1` [Example 89, 2-(2-Bromophenyl)-6-(2-methoxyphenyl)-4-phenyl-4,5-dihydro-1,2,4-triazin-3 (2H)-one] has an IC50 of 5000 nM.

In the case of `O=C1N(c2ccccc2)CC(c2ccccc2O)=NN1c1ccccc1Br` [Example 90, 2-(2-Bromophenyl)-6-(2-hydroxyphenyl)-4-phenyl-4,5-dihydro-1,2,4-triazin-3 (2H)-one], the IC50 is reported as 900 nM.

Work on `CN(C)CCOc1ccccc1C1=NN(c2ccccc2Br)C(=O)N(c2ccccc2)C1` [Example 91, 2-(2-Bromophenyl)-6-(2-dimethylaminoethoxyphenyl)-4-phenyl-4,5-dihydro-1,2,4-triazin-3 (2H)-one] yielded an IC50 of 300 nM.

Work on `COc1ccccc1C1=NN(c2ccccc2Br)C(=O)N(c2ccccn2)C1` [Example 92, 2-(2-Bromophenyl)-6-(2-methoxyphenyl)-4-(2-pyridyl)-4,5-dihydro-1,2,4-triazin-3 (2H)-one] yielded an IC50 of 100 nM.

With `N#Cc1ccccc1N1N=C(c2ccccc2O)CN(c2ccccc2)C1=O` [Example 93, 2-(2-Cyanophenyl)-6-(2-hydroxyphenyl)-4-phenyl-4,5-dihydro-1,2,4-triazin-3 (2H)-one] the IC50 was 30 nM.

Compound `O=C1N(c2cc(O)ccc2O)CC(c2ccccc2O)=NN1c1ccccc1Br` [Example 94, 2-(2-Bromophenyl)-4-(2,5-dihydroxyphenyl)-6-(2-hydroxyphenyl)-4,5-dihydro-1,2,4-triazin-3 (2H)-one] has an IC50 of 900 nM.

Work on `O=C1N(c2cc(O)ccc2O)CC(c2ccccc2O)=NN1c1ccccc1` [Example 95, 4-(2,5-Dihydroxyphenyl)-6-(2-hydroxyphenyl)-2-phenyl-4,5-dihydro-1,2,4-triazin-3 (2H)-one] yielded an IC50 of 50 nM.

`N#Cc1ccccc1N1N=C(c2ccccn2)CN(c2ccccc2O)C1=O` [Example 96, 2-(2-Cyanophenyl)-4-(2-hydroxyphenyl)-6-(2-pyridyl)-4,5-dihydro-1,2,4-triazin-3 (2H)-one] showed an IC50 of 600 nM.

Work on `COc1ccccc1C1=NN(c2ccccc2)C(=O)N(c2ccccc2C#N)C1` [Example 98, 4-(2-Cyanophenyl)-6-(2-methoxyphenyl)-2-phenyl-4,5-dihydro-1,2,4-triazin-3 (2H)-one] yielded an IC50 of 400 nM.

In the case of `COc1ccccc1C1=NN(c2ccccc2C#N)C(=O)N(c2ccccn2)C1` [Example 99, 2-(2-Cyanophenyl)-6-(2-methoxyphenyl)-4-(2-pyridyl)-4,5-dihydro-1,2,4-triazin-3 (2H)-one], the IC50 is reported as 70 nM.
